Legend:
[1] = system: mouse DRG neurons; format: cell-based
[2] = system: NaV1.3; settings: cited from earlier work
Description: (§1) Selective VGSC modulators remain useful tool compounds for delineating the contribution of particular isoforms to the excitability of neurons in both physiological and pathological states. […] In an attempt to rationally ...

[3] = system: NaV1.1; settings: cited from earlier work
Description: as §1

[4] = system: C57BL/6J mice; experiment: Spontaneous pain behaviors after intraplantar injection, wildtype mice; settings: mouse, in vivo
Description: For behavioral assessment, we used adult male wildtype or homozygous NaV1.9-deficient (NaV1.9^-/-) mice aged 6–8 weeks (~25g) on a C57BL/6J background. Homozygous Nav1.9 knockout mice on a C57BL/6J background were generated using CRISPR/Cas9 technology by the Queensland Facility for Advanced Genome Editing (The University of Queensland, Australia). In brief, two sgRNAs were designed to target exon 2 of the Scn11a gene. The deletion of exon 2 generated a frame shift mutation resulting in the introduction of stop codons in exon 3. […]
[…]. Mice were then placed individually into polyvinyl boxes (10 × 10 × 10 cm) and recorded by video for 20 min post-injection. The number of spontaneous pain behaviors, including licks, shakes, and flinches, were counted later by a blinded observer. Once spontaneous pain behavior had ceased, mechanical thresholds were assessed using an electronic von Frey apparatus (MouseMet Electronic von Frey, TopCat Metrology, Ely, UK), heat thresholds were assessed using the thermal probe test (MouseMet Thermal), and weight bearing was assessed using the Catwalk XT (Noldus Information Technology, Wageningen, The Netherlands) as previously described. To quantify weight bearing, the parameter ‘mean intensity of the 15 most intense pixels’ was used as a surrogate measure.
Data were plotted and analyzed by GraphPad Prism, versions 8.2.0 and 8.4.2. […]

[5] = system: voltage-gated calcium channels (CaV); settings: cited from earlier work
Description: Tf2 caused Ca^2+ influx in both small and large mouse adult DRG neurons, which was surprising given NaV1.3 is only expressed at significant levels in embryonic sensory neurons or in adult neurons after axotomy. […] As DRG neurons in this study were isolated from all spinal levels, we cannot rule out the presence of these NaV1.3-expressing neurons in culture. However, given the definitive lack of proteomic evidenc ...

NC1=N[C@H](O)[C@H]2[C@H]3O[C@]4(O)O[C@@H]([C@@H](O)[C@@]2(N1)[C@@H]4O)[C@]3(O)CO [TTX, tetrodotoxin]
block of Tf2-induced DRG neuron activation [1]: completely blocked

O=C(Nc1ccc(S(=O)(=O)Nc2nccs2)cc1)C(c1ccccc1)c1ccccc1 [ICA-121431]
NaV1.3 inhibition [2]: most potent NaV1.3 inhibitor described to the date | activity at NaV1.1 [3]: off-target activity at NaV1.1 | effect on Tf2-induced spontaneous flinching [4]: no effect on Tf2-induced spontaneous flinching

B1: kurtoxin: scorpion toxin from Parabuthus transvaalicus (protein, UniProt P58910 1-63, looked up)
Kurtoxin: KIDGYPVDYWNCKRICWYNNKYCNDLCKGLKADSGYCWGWTLSCYCQGLPDNARIKRSGRCRA
modulation of voltage-gated calcium channels (CaV) [5]: modulate members of the family of voltage-gated calcium channels (CaV)

— publication PMC7345637, “Characterization of Synthetic Tf2 as a NaV1.3 Selective Pharmacological Probe” (Biomedicines, 2020)
